One series relates to A10 cells. Put plainly: Cell cycle analysis using flow cytometry and BUdR staining. The format is cell-based. On the procedure:
Cell cycle analysis was performed using flow cytometry and BUdR staining. In FIG. 3, “Con” represents untreated, control cells. All other cell cultures were treated with nocodazole, which interferes with microtubule polymerization and blocks the cell cycle during M phase. […] Because A10 cells reside primarily in the cell cycle checkpoint between G0 and G1 (See “Con” in FIG. 3), evaluating the possibility that a pharmacologic agent inhibits transit out of that phase is not as straightforward as determining blockade at other cell cycle checkpoints. Therefore, cell cultures were treated for 24 hours with T channel calcium channel blockers mibefradil (mib), nickel (Ni) or TTL-1177 (a proprietary compound owned by the assignee Tau Therapeutics), before adding nocodazole. Absent an effect on the T channel blockers, cells would be locked at the cell cycle checkpoint between G2 and M by nocodazole as happened with cells treated with it alone.
Background: Flow cytometry measures light scatter and fluorescence of single cells or particles in a stream.

Series [1] deals with D54 tumors. Description: Interlaced therapy, human glioblastoma murine xenograft model, two cytotoxin rounds (Example 5). The format is in vivo, Mice. To be noted: over 30 days; subcutaneous D54; temozolamide 25% then 10% of LD10; mibefradil 40 then 35 mg/kg p.o. q.i.d. A general note: In xenograft studies the graft and the host belong to different species.
Experimental: Further studies of interlaced therapy for human glioblastoma in a murine xenograft model using the D54 cell line were conducted. Mice bearing subcutaneous implants of D54 tumors, which were allowed to become established, were treated with mibefradil at 40 mg/kg p.o. q.i.d. for 7 days or left untreated. On day seven, all animals received the S phase cytotoxin temozolamide at a dose of 25% of the LD10 over five days. Following two days of no treatment, mibefradil was re-started at a dose of 35 mg/kg p.o. q.i.d. in the group of mice which were originally treated with mibefradil.
The subject of series [2] is D54 tumors. Put plainly: Interlaced therapy, human glioblastoma murine xenograft model (Example 4). The format is in vivo, Mice. Here is the method: Studies of interlaced therapy for human glioblastoma in a murine xenograft model using the D54 cell line were conducted. Mice bearing subcutaneous implants of D54 tumors, which were allowed to become established at a volume of about 100 mm^3, were treated with mibefradil at 40 mg/kg p.o. q.i.d. for 7 days or left untreated. On day seven, all animals received the S phase cytotoxin temozolamide at a dose of 25% of the LD10 over five days. Following two days of no treatment, mibefradil was re-started at a dose of 35 mg/kg p.o. q.i.d. in the group of mice which were originally treated with mibefradil. On day 20, the mean tumor volume in the temozolamide only group of mice was 173 mm^3 as compared to the temozolamide plus mibefradil group of mice, whose mean tumor volume was 102 mm^3 (p=0.0485; n=10/group; Student's pooled, two tailed t-test). A pooled, two tailed. Student's t-test over all seven tumor volume measurements yielded p=0.0329. There were no animals that were euthanized in either group due to tumor size. The mean volume in the control group, which received no intervention, was 1214 mm^3 with three animals euthanized because of tumor size.

Another series concerns PANC 219 tumor. In kind it is in vivo. The settings on record: mibefradil 65 mg/kg p.o. b.i.d. On the procedure:
Pancreatic cancers resected from patients were immediately transplanted into the flanks of nude mice and maintained by serial, in vivo passage. Transplanted tumors were implanted at a volume of about 100 mm^3 and allowed to grow to 200 to 300 mm^3 before initiation of treatment. Mice bearing the PANC 219 tumor were either left untreated or treated with mibefradil at 65 mg/kg p.o. b.i.d. (n=10 in each group). Tumor growth was normalized to the size measured at the start of treatment.

Where [3] appears, read: A10 cells treated 24 hours with T channel blocker before adding nocodazole.

Structures are written as SMILES.

On to `[Ni]` [nickel], for which the “effect on cell cycle transit” value with A10 cells (setting [3]) is “arrested cells at the cell cycle checkpoint between G0 and G1”.
Turning to `Cn1nnc2c(C(N)=O)ncn2c1=O` [temozolamide], the mean tumor volume came to 156±65 mm^3 with D54 tumors [1] and 173 mm^3 in the series on D54 tumors [2] (day 20, subcutaneous D54, temozolamide 25% of LD10 over five days, mibefradil 40 then 35 mg/kg p.o. q.i.d., n=10/group). The “animals euthanized due to tumor size” value in the series on D54 tumors [2] (subcutaneous D54, n=10/group) is given as “no animals”.
As to `COC(=O)Nc1nc2ccc(C(=O)c3cccs3)cc2[nH]1` [nocodazole], the “effect on cell cycle transit” value in the series with A10 cells (A10 cells, nocodazole alone) is “blocked cell cycle transit through M phase”.
With `COCC(=O)O[C@]1(CCN(C)CCCc2nc3ccccc3[nH]2)CCc2cc(F)ccc2[C@@H]1C(C)C` [mibefradil], in the series with A10 cells (setting [3]), the “effect on cell cycle transit” value is “arrested cells at the cell cycle checkpoint between G0 and G1”. Further, the tumor regression entry with PANC 219 tumor (PANC 219 tumor in nude mice) is reported as “did not cause tumor regression”. Besides, the tumor growth entry in the series with PANC 219 tumor (PANC 219 tumor, growth normalized to size at start of treatment) was “controlled tumor growth”. In addition, the “deaths in treatment group” value with PANC 219 tumor (n=10, day 9) is on record as “One mouse in the treatment group died”.
